These results are taken from article PMC6862331, “Identification of Isoform-Selective Ligands for the Middle Domain of Heat Shock Protein 90 (Hsp90)” (International Journal of Molecular Sciences, 2019).

The target in test [1] is T1, recombinant human Hsp90β MD (Homo sapiens, UniProt P08238).
T1 construct: made in house; host or cells: Escherichia coli BL21 (DE3)
Description: Intrinsic tryptophan fluorescence spectroscopy (quenching screen and KD titration) with Hsp90β MD. Conditions: for binding to Hsp90β MD in initial screening: less than 40% quenching eliminated; for selectivity (preference) for the β-isoform over the α-isoform in terms of KD: Hsp90β MD vs Hsp90α MD; for Kd: titration, 20 µM Hsp90 MD, 20 mM Tris pH 7.5, 0.2 M KCl, triplicate, error = SD. The format is binding. The text has this: (§1) As a result of virtual screening, 24 hit compounds (Figure 1 and Table S3) were selected for further experimental testing against recombinant human Hsp90α MD (residues 294 to 554, Table S4) and human Hsp90β MD (residues 286 to 546, Table S5). As there are tryptophan residues located within the defined binding pocket in both Hsp90α MD and Hsp90β MD, intrinsic tryptophan fluorescence quenching experiment was used to screen the binding of our virtual hits to the proteins. Initial screening experiments were conducted by using 20 μM of Hsp90α/β MD and 1 mM of compounds. Molecules that gave less than 40% fluorescence quenching were eliminated.
(§2) We then focussed on studying the binding of our compounds (5, 8, 9, 10, 12, 17, 22, 24) to both Hsp90α MD and Hsp90β MD. Titration experiments were performed to quantify the binding affinity (dissociation constant, KD) to Hsp90α MD and Hsp90β MD (Table 1 and Figures S3–S10). The KD values of gambogic acid were also measured as control (Table 1 and Figure S11). […] Our KD values for gambogic acid are in agreement with previous studies (~10-fold preference). The selectivity for the β-isoform (over α-isoforms) was progressively less for weaker binders.
(§3) Fluorescence was measured using EnSpire Multimode Plate Reader (PerkinElmer, Melbourne, Australia). Experiments were performed in 20 µM of Hsp90 MD in 20 mM Tris (pH 7.5) and 0.2 M KCl. Different concentration of the virtual hits (InterBioScreen, Bar, Montenegro) or gambogic acid were added to the mixture. Excitation wavelength was 280 nm and intrinsic fluorescence was measured between 300 and 450 nm. The control experiment with Hsp90 MD on its own was conducted. Background fluorescence arising from the compound was subtracted to generate the final spectrum. The total volume per well of the 96-well microplate was 30 µL. Non-linear curve fitting of Equation (1) to the data was conducted using SigmaPlot 14.0 (Systat Software, San Jose, CA, USA). All tests were conducted in triplicate and the errors shown are standard deviation. KD was calculated for each binder using Equation (1), where Δobs is the changes in fluorescence intensity from the titrations, Δmax is the maximum fluorescence intensity change, [LT] represents the titrated ligand concentration, and [PT] indicates the protein concentration.
(§4) (1) Δobs=Δmax×(KD+[LT]+[PT])−(KD+[LT]+[PT])^2−(4×[PT]×[LT])/2×[PT]
(§5) Supplementary Figure S2. Screening of the virtual hits (1 mM) to Hsp90α/β MD (20 μM) by intrinsic protein fluorescence. Percentage fluorescence quenching was calculated with the […]
(§6) % Fluorescence quenching = (Iprotein − Iprotein+compound) […]
(§7) In which Iprotein denotes intrinsic fluorescence intensity of the protein in the absence of any compound, Iprotein+compound denotes intrinsic fluorescence intensity of the protein in the presence of the compound. Experiments were conducted in triplicate. Errors shown are standard […]
(§8) (1 picture or pasted object on this page, not shown here)

The target in test [2] is T2, recombinant human Hsp90α MD (Homo sapiens, UniProt P07900).
T2 construct: made in house; host or cells: Escherichia coli BL21 (DE3)
Description: Intrinsic tryptophan fluorescence spectroscopy (quenching screen and KD titration) with Hsp90α MD. The format is binding. As to conditions: for binding to Hsp90α MD in initial screening: less than 40% quenching eliminated.
Excerpt: as §1, §2, §3, §4, §5, §6, §7, §8

For test [3], the target named is T1, recombinant human Hsp90β MD. Set-up: method as in PMID 27466407. Conditions: cited from earlier work.
Setting [4] is: titration, 20 µM Hsp90 MD, 20 mM Tris pH 7.5, 0.2 M KCl, triplicate, error = SD, read-out: KD to Hsp90α MD.
Where [5] appears, read: initial screen, 1 mM compound, 20 μM protein.

Structures are written as SMILES. Several values for one entry are separate records, joined by “and”; a condition that tells them apart may be missing. Identical values can stand only once. Entries after “also recorded” stand apart in the source; their conditions may differ. Like-named read-outs stand apart in the source and are kept apart here. A value given as a limit tells only on which side of the number the result lay.

T1 sequence (P08238 286-546): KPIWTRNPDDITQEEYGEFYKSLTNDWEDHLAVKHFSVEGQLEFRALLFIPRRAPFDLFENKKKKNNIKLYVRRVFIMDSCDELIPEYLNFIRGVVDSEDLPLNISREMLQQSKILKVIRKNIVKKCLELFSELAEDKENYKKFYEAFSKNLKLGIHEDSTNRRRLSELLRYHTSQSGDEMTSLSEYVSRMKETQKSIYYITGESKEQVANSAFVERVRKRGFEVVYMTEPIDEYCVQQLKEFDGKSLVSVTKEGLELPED

`COc1cc(C2NC(C(=O)O)Cc3c2[nH]c2ccc(OCc4ccccc4)cc32)cc(OC)c1OC` (centres unmarked) [Compound 24, 6-(benzyloxy)-1-(3,4,5-trimethoxyphenyl)-2,3,4,9-tetrahydro-1H-pyrido[3,4-b]indole-3-carboxylic acid]: in test [1] (1 mM compound, 20 μM protein), the “binding to Hsp90β MD in initial screening” value (from here on “binding to Hsp90β MD”) was “bind to both Hsp90α MD and Hsp90β MD”. In addition, in test [1], the “selectivity (preference) for the β-isoform over the α-isoform in terms of KD” value (shortened to “selectivity (preference)”) is recorded as “bind stronger to Hsp90β MD than to Hsp90α MD”. Further, the Kd in test [1] (read-out: KD to Hsp90β MD) was > 100 µM and 265 µM; in test [2] (setting [4]) it was 661 ± 3 µM. Moreover, the “binding to Hsp90α MD in initial screening” value (shortened to “binding to Hsp90α MD”) in test [2] (1 mM compound, 20 μM protein) is “bind to both Hsp90α MD and Hsp90β MD”.
On to `O=C(CC1=C(O)C(=O)c2ccccc2C1=O)c1ccccc1` [Compound 12, 2-hydroxy-3-(2-oxo-2-phenylethyl)naphthalene-1,4-dione], for which, in test [1] (1 mM compound, 20 μM protein), the “binding to Hsp90β MD” value was “bind to both Hsp90α MD and Hsp90β MD”. For the same molecule, in test [1], the “selectivity (preference)” value is “bind stronger to Hsp90β MD than to Hsp90α MD; also recorded: seven-fold”. Moreover, the Kd in test [1] (read-out: KD to Hsp90β MD) was less than 20 µM; in test [2] (setting [4]), 92 ± 0.8 µM. For the same molecule, the “binding to Hsp90α MD” value in test [2] (1 mM compound, 20 μM protein) was “bind to both Hsp90α MD and Hsp90β MD”.
`CN[C@H]1CCc2cc(OC)c(OC)c(OC)c2-c2ccc(NCc3cccnc3)c(=O)cc21` [Compound 10, (S)-1,2,3-trimethoxy-7-(methylamino)-10-((pyridin-3-ylmethyl)amino)-6,7-dihydrobenzo[a]heptalen-9(5H)-one]: the “selectivity (preference)” value in test [1] is given as “bind stronger to Hsp90β MD than to Hsp90α MD”. Moreover, the Kd in test [1] (KD to Hsp90β MD) is > 100 µM and 164 µM; in test [2], more than 500 µM. Also, the “fluorescence quenching of Hsp90β MD” value in test [1] (setting [5]) is ~ 90%. Also, the “fluorescence quenching of Hsp90α MD” value in test [2] (setting [5]) was ~ 20%.
As for `O=C(CNC(=O)OCc1ccccc1)Oc1cc(O)c2c(=O)cc(-c3ccccc3)oc2c1` [Compound 8, 5-hydroxy-4-oxo-2-phenyl-4H-chromen-7-yl ((benzyloxy)carbonyl)glycinate], the “binding to Hsp90β MD” value in test [1] (1 mM compound, 20 μM protein) was “bind to both Hsp90α MD and Hsp90β MD”. Moreover, the “selectivity (preference)” value in test [1] is “slight preference for Hsp90α MD”. Besides, the values for the Kd in test [1] (read-out: KD to Hsp90β MD) and in test [2] (setting [4]) were more than 500 µM and 284 ± 4 µM, respectively. Besides, in test [2] (1 mM compound, 20 μM protein), the “binding to Hsp90α MD” value is “bind to both Hsp90α MD and Hsp90β MD”.
Regarding `CC(=O)N[C@H]1[C@H](Oc2ccc3c(=O)c(-c4ccc5c(c4)OCCCO5)c(C)oc3c2)O[C@H](CO)[C@@H](O)[C@@H]1O` [Compound 17, N-((2S,3R,4R,5S,6R)-2-((3-(3,4-dihydro-2H-benzo[b][1,4]dioxepin-7-yl)-2-methyl-4-oxo-4H-chromen-7-yl)oxy)-4,5-dihydroxy-6-(hydroxymethyl)tetrahydro-2H-pyran-3-yl)acetamide], in test [1] (1 mM compound, 20 μM protein), the “binding to Hsp90β MD” value was “bind to both Hsp90α MD and Hsp90β MD”. Besides, the “selectivity (preference)” value in test [1] is “bind stronger to Hsp90β MD than to Hsp90α MD”. Further, the Kd in test [1] (read-out: KD to Hsp90β MD) was > 100 µM and 285 µM; in test [2] (setting [4]), 506 ± 4 µM. Besides, the “binding to Hsp90α MD” value in test [2] (1 mM compound, 20 μM protein) was “bind to both Hsp90α MD and Hsp90β MD”.
For the molecule `CCC[C@@H](NC(=O)C(C)Oc1ccc2c(-c3ccccc3)cc(=O)oc2c1)C(=O)O` (stereo partly drawn) [Compound 5, (2R)-2-(2-((2-oxo-4-phenyl-2H-chromen-7-yl)oxy)propanamido)pentanoic acid], the “binding to Hsp90β MD” value in test [1] (1 mM compound, 20 μM protein) is “bind to both Hsp90α MD and Hsp90β MD”. Moreover, the Kd in test [1] (read-out: KD to Hsp90β MD) turned out to be 136 ± 1 µM; in test [2] (setting [4]), 470 ± 2 µM. Besides, the “binding to Hsp90α MD” value in test [2] (1 mM compound, 20 μM protein) was “bind to both Hsp90α MD and Hsp90β MD”.
`COc1cc(C(=O)NC(Cc2ccccc2)C(=O)O)cc(OC)c1OC` (centres unmarked) [Compound 22, (3,4,5-trimethoxybenzoyl)phenylalanine]: in test [1] (1 mM compound, 20 μM protein), the “binding to Hsp90β MD” value was “bind to both Hsp90α MD and Hsp90β MD”. Further, the “selectivity (preference)” value in test [1] is listed as “slight preference for Hsp90α MD”. Also, the Kd in test [1] (read-out: KD to Hsp90β MD) is more than 500 µM; in test [2] (setting [4]), 459 ± 7 µM. Also, in test [2] (1 mM compound, 20 μM protein), the “binding to Hsp90α MD” value is “bind to both Hsp90α MD and Hsp90β MD”.
On to `CC(C)=CCC[C@]1(C)C=Cc2c(O)c3c(c(CC=C(C)C)c2O1)O[C@]12C(=C[C@@H]4C[C@H]1C(C)(C)O[C@@]2(C/C=C(/C)C(=O)O)C4=O)C3=O` [Gambogic acid, reference compound], for which the Kd stood at 33 ± 2 µM in test [1] (read-out: KD to Hsp90β MD) and 195 ± 5 µM in test [2] (setting [4]). The “preference for Hsp90β MD over Hsp90α MD, previous study” value in test [3] was ~ 7 fold.
`CCC(C)[C@@H](NC(=O)C(C)Oc1ccc2c(-c3ccccc3)cc(=O)oc2c1)C(=O)O` (stereo partly drawn) [Compound 9, (2R)-3-methyl-2-(2-((2-oxo-4-phenyl-2H-chromen-7-yl)oxy)propanamido)pentanoic acid]: in test [1] (1 mM compound, 20 μM protein), the “binding to Hsp90β MD” value is “bind to both Hsp90α MD and Hsp90β MD”. Besides, the figures for the Kd in test [1] (read-out: KD to Hsp90β MD) and in test [2] (setting [4]) were 57 ± 1 µM and 299 ± 3 µM, respectively. Also, the “binding to Hsp90α MD” value in test [2] (1 mM compound, 20 μM protein) is “bind to both Hsp90α MD and Hsp90β MD”.
